# In patent US8524765B2, “Compounds that modulate intracellular calcium” (Calcimedica, Inc., priority 2007, dated 2013):
# Legend:
# [1] = system: rat T cells; assay: Cell proliferation of rat T cells; assay type: cell-based; settings: FIG. 5, read-out: IC50 for inhibition of cell proliferation
# [2] = DNBS-induced colitis in rats (ulcerative colitis model for IBD); assay type: in vivo, rat; settings: FIG. 20
# Method: Procedure: Male Wistar rats weighing 200±20 g are fasted for 24 hours prior to use. Distal colitis is induced by intra-colonic instillation of DNBS (2,4-dinotrobenzene sulfonic acid, 20 mg in 0.5 ml ethanol 30%) with a catheter of 12 cm in length, followed by gentle injection of air (2 ml) through the catheter to ensure that the solution remain in the colon. The animals are divided into groups of 5 each. Test substance and vehicle are administered either daily or twice daily by appropriate route of administration 24 hour and 1 hour before DNBS instillation and then for 6 consecutive days thereafter. One normal control group is treated with 0.9% NaCl alone without DNBS challenge. […] During the experiment, body weight, fecal occult blood and stool consistency are monitored daily. Furthermore, when the abdominal cavity is opened before removal of the colon, adhesions between the colon and other organs are noted as is the presence of colonic ulceration after removal and weighing of each colon (a macroscopic damage score is recorded according to established score criteria). The colon-to-body weight ratio is calculated according to the formula: Colon (g)/BW×100. The “Net” increase in ratio of Vehicle-control+DNBS group relative to Vehicle-control group is used as a base for comparison with individual treated groups and expressed as “Dec. […]
# [3] = system: primary human T cells; assay: Con A-induced cell proliferation of primary human T cells; assay type: cell-based; settings: FIG. 6, read-out: IC50 for inhibition of Con A-induced cell proliferation
# [4] = system: Jurkat T cells; assay: IL-2 secretion from Jurkat T cells (PHA+TPA, ELISA); assay type: cell-based
# Method: To measure IL-2 secretion from Jurkat T cells, cells were plated in a 96 well plate at a density of 1.5×10^5 cells/well. Cells were stimulated with 2.5 μg/ml PHA lectin+80 nM TPA for 20 hr in the presence or absence of a compound of Formula (I) or Formula (II). The medium was then collected and analyzed for IL-2 levels by ELISA (BioSource) according to the manufacturer's protocols.
# [5] = biological target: T1, hOrail/hSTIM1 (Homo sapiens, UniProt Q96D31); assay: Recombinant hOrail/hSTIM1-dependent Ca2+ entry in stable cells; assay type: cell-based; settings: FIG. 14
# T1 construct: expressed in transfected cells
# T1 sequence (Q96D31 whole entry): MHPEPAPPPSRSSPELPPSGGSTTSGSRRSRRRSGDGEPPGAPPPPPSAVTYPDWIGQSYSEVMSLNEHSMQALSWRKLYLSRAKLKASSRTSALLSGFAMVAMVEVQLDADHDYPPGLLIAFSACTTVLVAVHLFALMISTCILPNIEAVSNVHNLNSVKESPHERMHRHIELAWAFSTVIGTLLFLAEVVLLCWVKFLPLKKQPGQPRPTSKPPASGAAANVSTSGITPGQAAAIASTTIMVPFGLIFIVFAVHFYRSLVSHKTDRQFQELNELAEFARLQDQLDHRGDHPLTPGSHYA
# T1 sequence (Q13586 23-685 partner): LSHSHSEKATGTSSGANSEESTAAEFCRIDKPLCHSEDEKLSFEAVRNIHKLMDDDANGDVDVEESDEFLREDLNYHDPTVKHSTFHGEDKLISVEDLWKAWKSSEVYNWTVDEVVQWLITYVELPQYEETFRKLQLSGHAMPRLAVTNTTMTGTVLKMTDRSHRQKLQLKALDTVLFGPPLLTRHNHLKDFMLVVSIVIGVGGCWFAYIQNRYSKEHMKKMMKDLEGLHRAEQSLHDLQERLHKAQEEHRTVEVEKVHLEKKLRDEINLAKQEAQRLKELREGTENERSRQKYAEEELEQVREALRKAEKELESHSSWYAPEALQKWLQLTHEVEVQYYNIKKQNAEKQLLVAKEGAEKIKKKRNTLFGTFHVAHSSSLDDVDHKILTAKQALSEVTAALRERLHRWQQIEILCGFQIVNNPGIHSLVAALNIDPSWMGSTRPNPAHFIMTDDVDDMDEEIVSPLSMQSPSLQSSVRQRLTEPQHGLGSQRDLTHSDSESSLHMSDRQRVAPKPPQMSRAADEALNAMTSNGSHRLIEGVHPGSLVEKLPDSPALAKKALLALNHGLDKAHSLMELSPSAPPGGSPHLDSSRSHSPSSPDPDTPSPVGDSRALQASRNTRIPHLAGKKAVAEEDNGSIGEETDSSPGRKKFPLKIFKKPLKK
# [6] = system: SOCE; assay: Selectivity profile; settings: FIG. 8
# [7] = biological target: T2, hCav.1.2/β2/α2δ channels (Homo sapiens, UniProt Q13936); assay: Cloned L-type calcium channels in CHO cells (PatchXpress patch clamp); assay type: cell-based; settings: FIG. 16
# T2 construct: host or cells: CHO cells
# T2 sequence (Q13936 whole entry): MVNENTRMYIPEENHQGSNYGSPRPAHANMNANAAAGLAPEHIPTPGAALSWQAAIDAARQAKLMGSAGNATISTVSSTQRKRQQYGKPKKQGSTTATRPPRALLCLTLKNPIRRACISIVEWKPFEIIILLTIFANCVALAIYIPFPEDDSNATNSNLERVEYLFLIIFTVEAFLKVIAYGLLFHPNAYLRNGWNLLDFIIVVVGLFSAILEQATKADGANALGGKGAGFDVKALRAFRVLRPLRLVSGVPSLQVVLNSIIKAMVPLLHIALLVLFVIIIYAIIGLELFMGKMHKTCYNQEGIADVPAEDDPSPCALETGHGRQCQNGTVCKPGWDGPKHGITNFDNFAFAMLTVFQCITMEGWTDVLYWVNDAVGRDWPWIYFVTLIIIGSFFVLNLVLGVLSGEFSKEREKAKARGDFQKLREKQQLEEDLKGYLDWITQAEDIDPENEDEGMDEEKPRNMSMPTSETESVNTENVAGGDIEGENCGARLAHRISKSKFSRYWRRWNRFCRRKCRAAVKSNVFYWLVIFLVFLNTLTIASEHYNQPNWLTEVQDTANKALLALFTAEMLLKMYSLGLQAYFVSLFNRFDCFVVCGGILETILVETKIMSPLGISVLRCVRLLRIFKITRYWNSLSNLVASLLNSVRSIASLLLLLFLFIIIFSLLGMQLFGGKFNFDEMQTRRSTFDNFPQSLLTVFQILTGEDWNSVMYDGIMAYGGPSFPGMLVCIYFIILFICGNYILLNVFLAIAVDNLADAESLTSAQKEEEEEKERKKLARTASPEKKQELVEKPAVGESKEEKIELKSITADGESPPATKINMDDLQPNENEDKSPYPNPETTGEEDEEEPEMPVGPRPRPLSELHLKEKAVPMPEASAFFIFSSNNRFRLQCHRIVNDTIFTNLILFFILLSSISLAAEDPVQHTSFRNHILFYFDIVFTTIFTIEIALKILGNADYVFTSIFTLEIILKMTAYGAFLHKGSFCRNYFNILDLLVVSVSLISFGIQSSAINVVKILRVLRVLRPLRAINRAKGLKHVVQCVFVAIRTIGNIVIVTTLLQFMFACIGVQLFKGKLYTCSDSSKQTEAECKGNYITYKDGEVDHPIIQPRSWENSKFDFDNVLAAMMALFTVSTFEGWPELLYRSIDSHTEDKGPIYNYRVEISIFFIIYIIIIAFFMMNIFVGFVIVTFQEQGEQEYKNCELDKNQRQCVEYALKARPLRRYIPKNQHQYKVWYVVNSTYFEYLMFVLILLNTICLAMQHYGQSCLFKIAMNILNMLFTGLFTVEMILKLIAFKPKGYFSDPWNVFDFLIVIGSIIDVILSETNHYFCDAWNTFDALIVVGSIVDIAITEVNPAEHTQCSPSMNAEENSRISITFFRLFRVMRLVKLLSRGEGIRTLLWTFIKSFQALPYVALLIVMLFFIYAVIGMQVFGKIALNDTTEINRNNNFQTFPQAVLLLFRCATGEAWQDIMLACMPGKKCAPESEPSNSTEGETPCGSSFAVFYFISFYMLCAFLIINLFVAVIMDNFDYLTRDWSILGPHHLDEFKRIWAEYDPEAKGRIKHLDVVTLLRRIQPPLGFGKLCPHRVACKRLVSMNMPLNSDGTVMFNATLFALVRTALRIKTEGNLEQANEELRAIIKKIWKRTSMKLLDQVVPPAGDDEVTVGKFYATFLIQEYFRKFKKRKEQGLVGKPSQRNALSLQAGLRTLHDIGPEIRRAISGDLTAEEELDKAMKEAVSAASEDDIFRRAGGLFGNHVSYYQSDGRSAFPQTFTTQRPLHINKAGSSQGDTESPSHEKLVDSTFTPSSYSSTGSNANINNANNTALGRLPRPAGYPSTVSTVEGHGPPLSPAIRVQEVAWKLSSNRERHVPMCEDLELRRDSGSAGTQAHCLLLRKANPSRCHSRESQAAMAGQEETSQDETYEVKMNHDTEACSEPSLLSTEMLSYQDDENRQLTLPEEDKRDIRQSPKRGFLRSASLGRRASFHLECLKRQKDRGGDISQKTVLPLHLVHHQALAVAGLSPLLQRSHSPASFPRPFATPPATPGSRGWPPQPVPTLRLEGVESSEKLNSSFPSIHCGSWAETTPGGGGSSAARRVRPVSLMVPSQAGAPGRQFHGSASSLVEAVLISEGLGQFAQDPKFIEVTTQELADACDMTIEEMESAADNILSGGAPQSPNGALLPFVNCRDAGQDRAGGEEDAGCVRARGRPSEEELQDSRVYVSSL
# T2 sequence (Q08289 whole entry partner): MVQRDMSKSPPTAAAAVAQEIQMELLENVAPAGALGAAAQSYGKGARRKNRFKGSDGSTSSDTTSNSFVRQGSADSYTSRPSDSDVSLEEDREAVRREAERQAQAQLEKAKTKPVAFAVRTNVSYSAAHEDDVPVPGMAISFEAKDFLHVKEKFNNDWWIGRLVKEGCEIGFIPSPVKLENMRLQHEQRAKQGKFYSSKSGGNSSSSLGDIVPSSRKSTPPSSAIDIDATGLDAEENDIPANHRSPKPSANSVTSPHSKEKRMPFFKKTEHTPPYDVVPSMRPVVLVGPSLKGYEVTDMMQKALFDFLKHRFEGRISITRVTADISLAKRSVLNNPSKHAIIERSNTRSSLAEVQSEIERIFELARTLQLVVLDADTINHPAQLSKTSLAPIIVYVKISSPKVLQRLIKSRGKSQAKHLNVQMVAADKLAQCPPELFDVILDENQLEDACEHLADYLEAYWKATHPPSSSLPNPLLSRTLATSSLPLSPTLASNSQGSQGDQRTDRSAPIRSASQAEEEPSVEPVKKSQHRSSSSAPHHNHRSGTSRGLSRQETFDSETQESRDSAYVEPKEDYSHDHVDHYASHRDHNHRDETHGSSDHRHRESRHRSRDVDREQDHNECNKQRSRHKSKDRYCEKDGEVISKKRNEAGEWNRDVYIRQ
# T2 sequence (P54289 25-1103 partner): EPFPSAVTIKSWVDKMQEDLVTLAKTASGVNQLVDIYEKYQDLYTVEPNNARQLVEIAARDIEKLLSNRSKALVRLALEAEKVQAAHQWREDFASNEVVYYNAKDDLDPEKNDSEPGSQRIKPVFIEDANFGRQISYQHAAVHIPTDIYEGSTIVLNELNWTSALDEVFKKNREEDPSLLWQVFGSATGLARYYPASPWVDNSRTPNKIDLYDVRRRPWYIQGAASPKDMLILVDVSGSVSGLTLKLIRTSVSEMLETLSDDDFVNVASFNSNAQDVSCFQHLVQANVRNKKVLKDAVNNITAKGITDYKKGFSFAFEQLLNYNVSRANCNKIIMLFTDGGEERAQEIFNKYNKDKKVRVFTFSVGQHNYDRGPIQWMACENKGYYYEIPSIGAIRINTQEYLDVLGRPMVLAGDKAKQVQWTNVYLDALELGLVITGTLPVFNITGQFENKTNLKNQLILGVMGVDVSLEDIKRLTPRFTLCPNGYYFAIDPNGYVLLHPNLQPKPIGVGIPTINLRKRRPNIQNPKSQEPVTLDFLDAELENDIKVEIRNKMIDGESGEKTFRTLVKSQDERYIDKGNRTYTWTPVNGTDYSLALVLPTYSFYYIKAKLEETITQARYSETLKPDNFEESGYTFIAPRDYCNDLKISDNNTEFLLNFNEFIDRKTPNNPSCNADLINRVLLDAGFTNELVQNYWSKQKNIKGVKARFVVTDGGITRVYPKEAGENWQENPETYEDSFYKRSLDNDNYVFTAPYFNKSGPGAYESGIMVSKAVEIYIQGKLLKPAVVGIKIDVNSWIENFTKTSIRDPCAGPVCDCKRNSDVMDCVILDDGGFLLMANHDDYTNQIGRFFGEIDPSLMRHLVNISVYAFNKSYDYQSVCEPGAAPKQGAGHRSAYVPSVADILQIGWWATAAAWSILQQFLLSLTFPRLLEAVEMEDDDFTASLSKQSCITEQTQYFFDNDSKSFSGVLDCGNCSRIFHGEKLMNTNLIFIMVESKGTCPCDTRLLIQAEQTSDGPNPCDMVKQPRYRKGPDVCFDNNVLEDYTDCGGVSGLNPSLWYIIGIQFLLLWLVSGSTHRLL
# Method: Compound A stock solutions were prepared in dimethyl sulfoxide (DMSO) and stored frozen. Compound A concentrations were prepared fresh daily by diluting stock solutions into an appropriate HEPES-buffered physiological saline solution. Each test compound formulation was sonicated at room temperatrue for at least 20 minutes to facilitate dissolution. A glass-lined 96-well compound plate was loaded with the appropriate amounts of test and control solutions, and placed in the plate well of PatchXpress®. The effects of five concentrations were evaluated. Stock solutions of the positive control were prepared in batches and frozen. The positive control concentration was prepared fresh daily by diluting stock solutions into HB-PS. The final DMSO concentration was 0.3%.
# Cells were maintained in tissue culture incubators per ChanTest SOP. […]
# In preparation for a recording session, intracellular solution was loaded into the intracellular compartments of the planar electrode. After establishment of a whole-cell configuration, membrane currents were recorded using dual-channel patch clamp amplifiers in the PatchXpress® system. […] Onset and steady state block of hCav.1.2/β2/α2δ channels were measured using a stimulus voltage pattern consisting of a depolarizing test pulse at 10 s intervals from a −80 mV holding potential. […] Peak current was measured during the step to 10 mV. […]
# [8] = Skin transplant rejection in Lewis rats; assay type: in vivo, rat; settings: FIG. 18
smiles,measurement,setting,value
"O=C(Nc1scc(-c2ccc(Br)cc2)c1C(=O)O)c1ccc(F)cc1 [Compound 1, 2-(4-fluorobenzamido)-4-(4-bromophenyl)thiophene-3-carboxylic acid]",IC50,[1],~4.3 µM
same,inflammation in the rat ulcerative colitis model for IBD,[2],inhibition of inflammation
same,IC50,[3],~3.7 µM
same,IC50,"[4]; Homo sapiens, Jurkat T cells stimulated with PHA+TPA, FIG. 7, read-out: IC50 for inhibition of IL-2 release",~0.5 µM
same,effect of combination with cyclosporin A on IL-2 secretion,"[4]; Jurkat T cells stimulated with PHA/TPA, Compound 1 together with cyclosporin A, FIG. 10",additive effects
same,effect on recombinant hOrail/hSTIM1-dependent Ca2+ entry,[5],inhibition
same,selectivity profile,[6],selective inhibitor of SOCE
same,effect on recombinant Cav1.2 L-type Ca2+ channels,[7],inhibits
same,rejection of skin transplants,[8],delayed rejection
